Read-outs that look alike come from different tables or passages of the source.
Experiments:
[1] = molecular target: T1, GST-hCAR-LBD (Homo sapiens, UniProt Q14994); assay: CoAct binding inverse agonist assay (LanthaScreen TR-FRET, fluorescent PGC-1α coactivator recruitment/repression); format: biochemical; conditions: for inhibition at 70 µM: read-out: % Inhibition (70 μM); for fold increase of IC50 (decrease of activity) relative to lead chemical 1 (CINPA1): relative to chemical 1
T1 construct: purchased Life Technologies (Carlsbad, Calif.) or Invitrogen (Carlsbad, Calif.)
T1 sequence (Q14994 109-352 limits assumed): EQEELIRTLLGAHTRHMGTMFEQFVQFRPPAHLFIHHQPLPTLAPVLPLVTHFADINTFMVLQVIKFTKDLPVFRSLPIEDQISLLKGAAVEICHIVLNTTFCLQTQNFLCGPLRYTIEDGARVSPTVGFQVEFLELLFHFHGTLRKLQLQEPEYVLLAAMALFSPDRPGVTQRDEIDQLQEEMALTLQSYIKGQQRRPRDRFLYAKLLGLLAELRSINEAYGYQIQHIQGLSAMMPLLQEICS
Experimental: The effect of putative CAR ligands on the recruitment or repression of PGC-1α binding to hCAR was evaluated by using a LanthaScreen TR-FRET assay according to the manufacturer's instructions. […] The final DMSO concentration was 0.7% in all assay wells. […] The % Inhibition values were then plotted for individual chemicals. When applicable, the graphic software GraphPad Prism 5.04 (GraphPad Software, La Jolla, Calif., USA) was used to fit the data into a one-site competitive-binding equation to derive IC50 values. […] The assay plates were then briefly spun down and incubated for 1 hour at room temperature (25° C.). […] The final DMSO concentration was 0.7% in all assay wells. […] The % Inhibition values were then plotted for individual chemicals. When applicable, the graphic software GraphPad Prism 5.04 (GraphPad Software, La Jolla, Calif., USA) was used to fit the data into a one-site competitive-binding equation to derive IC50 values.

[2] = molecular target: T2, hCAR1 (Homo sapiens, UniProt Q14994); assay: Cell-based inverse agonist assay (CYP2B6-luciferase reporter in HepG2 cells transfected with hCAR1)
T2 construct: expressed in transfected cells; host or cells: HepG2 (transient transfection)
T2 sequence (Q14994 1-348 isoform Q14994-2): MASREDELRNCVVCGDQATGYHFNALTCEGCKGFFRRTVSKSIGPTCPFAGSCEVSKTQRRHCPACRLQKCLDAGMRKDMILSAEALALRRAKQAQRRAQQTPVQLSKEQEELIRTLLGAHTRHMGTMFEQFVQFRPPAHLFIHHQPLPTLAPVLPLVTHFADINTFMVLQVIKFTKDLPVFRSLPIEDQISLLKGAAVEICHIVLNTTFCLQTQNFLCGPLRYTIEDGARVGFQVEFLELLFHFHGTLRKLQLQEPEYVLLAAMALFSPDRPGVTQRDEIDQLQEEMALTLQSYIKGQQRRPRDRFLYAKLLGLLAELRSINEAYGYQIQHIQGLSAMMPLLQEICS
Experimental: HepG2 cells grown in flasks were transfected with Flag-hCAR1 and CYP2B6-luciferase reporter at a 1:3 ratio with Fugene HD (Promega) and incubated for 24 h. Cells were trypsinized and plated in 384-well plates (CulturPlate-384, PerkinElmer) at 5000 cells/well for the primary or secondary screening assays. Cells were treated with chemicals transferred by using a pintool 24 h prior to measuring reporter luciferase activity with SteadyLite firefly luciferase reagent and an EnVision plate reader (PerkinElmer). […] PXR activity was measured in HepG2 cells stably transfected with hPXR and CYP3A4-luciferase reporter (previously described as PXR Clonel cells, see Li, G., et al. (2012) Tox. Appl. Pharm. 258, 268-274; and Lin, W., et al. (2008) J. Biol. Chem. 283, 30650-30657). […] The luminescence signal was detected by using an Envision plate reader (PerkinElmer) and used to calculate the percentage of PXR activation. […] A flowchart of our screening strategy is illustrated in FIG. 1A. HepG2 cells were transiently transfected with pcDNA-hCAR1 and CYP2B6-luciferase plasmids and treated with varying concentrations of the test compounds in 384-well plates for 24 h, and CAR-mediated luciferase activity was measured. Twenty-five hits, defined as those displaying dose-responsive inhibitory effect on the constitutively active hCAR1, were selected and tested in various secondary screening assays. CINPA1 (FIG. 1B) was selected based on its potent inhibitory effect on hCAR1 and lack of detectable agonistic activity against PXR.

[3] = 70 μM compound, 42 μM clotrimazole = 100%, DMSO = 0%
[4] = read-out: IC50 (CAR inverse agonistic activity)

Row | Compound | IC50 ([1]; Table 4, read-out: IC50) | IC50 [1, 4] | further results
1 | CCN(CC)CC(=O)N1c2ccccc2CCc2ccc(Nc3nnc(C)o3)cc21 [Compound 10, 2-(diethylamino)-1-(3-((5-methyl-1,3,4-oxadiazol-2-yl)amino)-10,11-dihydro-5H-dibenzo[b,f]azepin-5-yl)ethan-1-one] | 18800 nM | – | inhibition at 70 µM [1, 3]: 93.8%; fold increase of IC50 (decrease of activity) relative to lead chemical 1 (CINPA1) [1]: about 3.4 fold; IC50 [2]: 111600 nM; % Inhibition (56 μM) [2]: 6.281%
2 | CCN(CC)CC(=O)N1c2ccccc2CCc2ccc(NC(=O)N(CC)CC)cc21 [Compound 8, 3-(5-(diethylglycyl)-10,11-dihydro-5H-dibenzo[b,f]azepin-3-yl)-1,1-diethylurea] | – | 14000 nM | inhibition at 70 µM [1, 3]: 93.8%; IC50 [2]: 109600 nM; % Inhibition (56 μM) [2]: 2.849%
3 | CC(C)(C)OC(=O)Nc1ccc2c(c1)N(C(=O)CN1CCCCC1)c1ccccc1CC2 [Compound 38, tert-butyl (5-(2-(piperidin-1-yl)acetyl)-10,11-dihydro-5H-dibenzo[b,f]azepin-3-yl)carbamate] | – | 220 nM | –
4 | CCOC(=O)Nc1ccc2c(c1)N(C(=O)CNC(C)(C)CC)c1ccccc1CC2 [Compound 21, ethyl (5-(tert-pentylglycyl)-10,11-dihydro-5H-dibenzo[b,f]azepin-3-yl)carbamate] | – | 2060 nM | inhibition at 70 µM [1, 3]: 116%; fold increase of IC50 (decrease of activity) relative to lead chemical 1 (CINPA1) [1]: 3 fold
5 | CCCN(CCC)CC(=O)N1c2ccccc2CCc2ccc(NC(=O)OC(C)C)cc21 [Compound 28, isopropyl (5-(dipropylglycyl)-10,11-dihydro-5H-dibenzo[b,f]azepin-3-yl)carbamate] | – | 120 nM | –
6 | CC(C)OC(=O)Nc1ccc2c(c1)N(C(=O)COC1CCC1)c1ccccc1CC2 [Compound 34, isopropyl (5-(2-cyclobutoxyacetyl)-10,11-dihydro-5H-dibenzo[b,f]azepin-3-yl)carbamate] | – | 38 nM | –
7 | O=C(Nc1ccc2c(c1)N(C(=O)Cn1cccc1)c1ccccc1CC2)N1CCCCC1 [Compound 47] | 99 nM | – | –
8 | CC(C)OC(=O)Nc1ccc2c(c1)N(C(=O)CCN(C)C)c1ccccc1CC2 [compound 89] | – | 1790 nM | fold increase of potency compared to chemical 86 ([1]; relative to chemical 86): about 3 fold
9 | CC(C)OC(=O)Nc1ccc2c(c1)N(C(=O)CN1CCCCC1)c1ccccc1CC2 [Compound 27, isopropyl (5-(2-(piperidin-1-yl)acetyl)-10,11-dihydro-5H-dibenzo[b,f]azepin-3-yl)carbamate] | – | 250 nM | –
10 | N-(5-(diethylglycyl)-10,11-dihydro-5H-dibenzo[b,f]azepin-3-yl)isobutyramide [Compound 3] | – | 680 nM | % Inhibition (70 μM) [1, 3]: 113.8%; IC50 [2]: 104400 nM; % Inhibition (56 μM) [2]: 0.03612%
11 | O=C(Nc1ccc2c(c1)N(C(=O)Cn1cccc1)c1ccccc1CC2)OC1CC1 [Compound 41, cyclopropyl (5-(2-(1H-pyrrol-1-yl)acetyl)-10,11-dihydro-5H-dibenzo[b,f]azepin-3-yl)carbamate] | – | 22 nM | –
12 | O=C(Nc1ccc2c(c1)N(C(=O)Cn1cccc1)c1ccccc1CC2)N1CCCC1 [Compound 45] | 280 nM | – | –
13 | CCOC(=O)Nc1ccc2c(c1)N(C(=O)CN1[C@H]3CC[C@@H]1CC3)c1ccccc1CC2 [Compound 20, ethyl (5-(2-((1s,4s)-7-azabicyclo[2.2.1]heptan-7-yl)acetyl)-10,11-dihydro-5H-dibenzo[b,f]azepin-3-yl)carbamate] | – | – | inhibition at 70 µM [1, 3]: 118%
14 | O=C(Nc1ccc2c(c1)N(C(=O)Cn1cccc1)c1ccccc1CC2)N1CCOCC1 [Compound 48] | 370 nM | – | –
15 | CCOC(=O)Nc1ccc2c(c1)N(C(=O)CN1CCCCC1)c1ccccc1CC2 [Compound 18, ethyl (5-(2-(piperidin-1-yl)acetyl)-10,11-dihydro-5H-dibenzo[b,f]azepin-3-yl)carbamate] | – | 620 nM | inhibition at 70 µM [1, 3]: 119%
16 | CCOC(=O)Nc1ccc2c(c1)N(C(=O)CNC(C)(C)C)c1ccccc1CC2 [compound 83] | – | 3630 nM | fold increase of IC50 (decrease of activity) relative to lead chemical 1 (CINPA1) [1]: 5 fold
17 | CC(C)OC(=O)Nc1ccc2c(c1)N(C(=O)COC1CC1)c1ccccc1CC2 [Compound 33, isopropyl (5-(2-cyclopropoxyacetyl)-10,11-dihydro-5H-dibenzo[b,f]azepin-3-yl)carbamate] | – | 82 nM | –
18 | CCCN(CCC)CC(=O)N1c2ccccc2CCc2ccc(NC(=O)OC(C)(C)C)cc21 [Compound 37, tert-butyl (5-(dipropylglycyl)-10,11-dihydro-5H-dibenzo[b,f]azepin-3-yl)carbamate] | 153 nM | 150 nM | –
19 | CC(C)OC(=O)Nc1ccc2c(c1)N(C(=O)Cc1cccs1)c1ccccc1CC2 [Compound 62] | 21 nM | – | –
20 | CC(C)OC(=O)Nc1ccc2c(c1)N(C(=O)OC1CCCC1)c1ccccc1CC2 [Compound 56] | 16 nM | – | –
21 | CCN(CC)CCC(=O)N1c2ccccc2CCc2ccc(NC(=O)OC(C)C)cc21 [Compound 25, isopropyl (5-(3-(diethylamino)propanoyl)-10,11-dihydro-5H-Dibenzo[b,f]azepin-3-yl)carbamate] | – | 6400 nM | –
22 | CCOC(=O)Nc1ccc2c(c1)N(C(=O)CCN1CCCC1)c1ccccc1CC2 [Compound 23] | – | 3180 nM | inhibition at 70 µM [1]: 118%
23 | CCOC(=O)Nc1ccc2c(c1)N(C(=O)CCN1CCOCC1)c1ccccc1CC2 [compound 85] | – | 320 nM | –
24 | O=C(Nc1ccc2c(c1)N(C(=O)n1cccc1)c1ccccc1CC2)OC1CCCCC1 [Compound 58] | 14 nM | – | –
25 | CCNS(=O)(=O)Nc1ccc2c(c1)N(C(=O)CN(CC)CC)c1ccccc1CC2 [Compound 9] | – | 19100 nM | inhibition at 70 µM [1, 3]: 92%; IC50 [2]: 105900 nM; % Inhibition (56 μM) [2]: 4.757%
26 | CC(C)OC(=O)Nc1ccc2c(c1)N(C(=O)COC1COC1)c1ccccc1CC2 [Compound 49] | 660 nM | – | –
